Experimental data from patent US6387912B1, “Utilization of pyrimidine derivatives for preventing and treating cerebral ischaemia” (BASF Aktiengesellschaft, priority 1999, dated 2002).
Counter-ions that a name gives are not always drawn.

Row | SMILES | melting point
1 | Cc1c(C(=O)N(C)C)sc2ncn(CCN3CCN(c4cccc(C(F)(F)F)c4)CC3)c(=O)c12 [Example 7, 3,4-Dihydro-5-methyl-6-dimethylcarbamoyl-3-[2-(4-(3-trifluoromethylphenyl)piperazin-1-yl)ethyl]thieno[2,3-d]-pyrimidin-4-one] | 146 °C
2 | COc1ccc(N2CCN(CCn3cnc4sc(C(=O)N(C)C)c(C)c4c3=O)CC2)c(OC)c1 [Example 30, 3,4-Dihydro-5-methyl-6-dimethylcarbamoyl-3-[2-(4-(2,4-dimethoxyphenyl)piperazin-1-yl)ethyl]thieno-[2,3-d]pyrimidin-4-one] | 170 to 171 °C
3 | Cc1cccc(N2CCN(CCn3cnc4sc5c(c4c3=O)CCN(C)C5)CC2)n1 [Example 126, 3,4,5,6,7,8-Hexahydro-7-methyl-3-[2-(4-(6-methylpyridin-2-yl)piperazin-1-yl)ethyl]pyrido[4′,3′:4,5]thieno[2,3-d]-pyrimidin-4-one] | 138 to 140 °C
4 | CN1CCc2c(sc3ncn(CCCN4CCN(c5ncccn5)CC4)c(=N)c23)C1 [Example 36, 3,4,5,6,7,8-Hexahydro-7-methyl-3-[3-(4-pyrimidin-2-yl-piperazin-1-yl)propyl]pyrido[4′,3′:4,5]thieno[2,3-d]-pyrimidin-4-imine] | 161 to 163 °C
5 | CN1CCc2c(sc3ncn(CCN4CCN(c5nccc(C(F)(F)F)n5)CC4)c(=O)c23)C1 [Example 127, 3,4,5,6,7,8-Hexahydro-7-methyl-3-[2-(4-(4-trifluoromethyl-pyrimidin-2-yl)piperazin-1-yl)ethyl]pyrido[4′,3′:4,5]-thieno[2,3-d]pyrimidin-4-one] | 291 to 292 °C
6 | COc1ccccc1N1CCN(CCn2c(C)nc3sc4c(c3c2=O)CCN(C)C4)CC1 [Example 120, 3,4,5,6,7,8-Hexahydro-2,7-dimethyl-3-[2-(4-(2-methoxyphenyl)-piperazin-1-yl)ethyl]pyrido[4′,3′:4,5]thieno-[2,3-d]pyrimidin-4-one] | 176 to 178 °C
7 | CN1CCc2c(sc3ncn(CCN4CCN(c5ccccc5)CC4)c(=O)c23)C1 [Example 145, 3,4,5,6,7,8-Hexahydro-7-methyl-3-[2-(4-phenylpiperazin-1-yl)ethyl]pyrido[4′,3′:4,5]thieno[2,3-d]pyrimidin-4-one] | 121 to 123 °C
8 | CCOC(=O)N1Cc2sc3ncn(CCN4CCN(c5cccc6ccccc56)CC4)c(=O)c3c2C1 [Example 8, 3,4,5,7-Tetrahydro-6-carboethoxy-3-[2-(4-(1-naphthyl)-piperazin-1-yl)ethyl]pyrrolo[3′,4′:4,5]thieno[2,3-d]-pyrimidin-4-one] | 190 to 192 °C
9 | CN1CCc2c(sc3ncn(CCN4CCN(c5cc(Cl)cc(Cl)c5)CC4)c(=O)c23)C1 [Example 46, 3,4,5,6,7,8-Hexahydro-7-methyl-3-[2-(4-(3,5-dichlorophenyl)-piperazin-1-yl)ethyl]pyrido[4′,3′:4,5]thieno[2,3-d]pyrimidin-4-one] | 97 to 100 °C
10 | Cc1ccc2ccccc2c1N1CCN(CCn2cnc3sc(C(=O)N(C)C)c(C)c3c2=O)CC1 [Example 4, 3,4-Dihydro-5-methyl-6-dimethylcarbamoyl-3-[2-(4-(2-methyl-1-naphthyl)piperazin-1-yl)ethyl]-thieno[2,3-d]pyrimidin-4-one] | 178 to 180 °C
11 | COc1ccccc1N1CCN(CCn2cnc3sc4c(c3c2=O)CCNC4)CC1 [Example 115, 3,4,5,6,7,8-Hexahydro-3-[2-(4-(2-methoxyphenyl)-piperazin-1-yl)ethyl]pyrido[4′,3′:4,5]thieno[2,3-d]pyrimidin-4-one] | 168 to 170 °C
12 | CN1CCc2c(sc3ncn(CCN4CCN(c5ccc6ccccc6c5)CC4)c(=O)c23)C1 [Example 73, 3,4,5,6,7,8-Hexahydro-7-methyl-3-[2-(4-naphth-2-ylpiperazin-1-yl)ethyl]pyrido[4′,3′:4,5]thieno[2,3-d]pyrimidin-4-one] | 140 to 141 °C
13 | CCOC(=O)N1Cc2sc3ncn(CC(C)N4CCN(c5ccccc5Cl)CC4)c(=O)c3c2C1 (stereo not shown) [Example 39, 3,4,5,7-Tetrahydro-6-carboethoxy-3-[2-(4-(2-chlorophenyl)-piperazin-1-yl)propyl]pyrrolo[3′,4′:4,5]thieno-[2,3-d]pyrimidin-4-one] | 172 °C
14 | CCN1CCc2sc3ncn(CCN4CCCN(c5cccc6ccccc56)CC4)c(=O)c3c2C1 (as salt: hydrochloride) [Example 17, 3,4,5,6,7,8-Hexahydro-6-ethyl-3-[2-(4-naphth-1-ylhexahydro-1,4-diazepin-1-yl)ethyl]pyrido[3′,4′:4,5]thieno[2,3-d]-pyrimidin-4-one] | 276 to 280 °C
15 | Cc1c(C(=O)N(C)C)sc2ncn(CCN3CCN(c4cccc5c4CCCC5)CC3)c(=O)c12 [Example 13, 3,4-Dihydro-5-methyl-6-dimethylcarbamoyl-3-[2-(4-tetralin-5-ylpiperazin-1-yl)ethyl]thieno[2,3-d]pyrimidin-4-one] | 174 °C
16 | CCOC(=O)N1Cc2sc3ncn(CCN4CCN(c5ncccn5)CC4)c(=O)c3c2C1 [Example 11, 3,4,5,7-Tetrahydro-6-carboethoxy-3-[2-(4-pyrimidin-2-yl-piperazin-1-yl)ethyl]pyrrolo[3′,4′:4,5]thieno[2,3-d]-pyrimidin-4-one] | 166 °C
17 | Cc1ccc(C)c(N2CCN(CCn3cnc4sc(C(=O)N(C)C)c(C)c4c3=O)CC2)c1 [Example 31, 3,4-Dihydro-5-methyl-6-dimethylcarbamoyl-3-[2-(4-(2,5-dimethylphenyl)piperazin-1-yl)ethyl]thieno-[2,3-d]pyrimidin-4-one] | 90 to 91 °C

Results, then the molecule that gave them:

Row | melting point | SMILES
18 | 153 °C | Cc1c(C(=O)N(C)C)sc2ncn(CCN3CCN(c4cccc5c4CCC5)CC3)c(=O)c12 [Example 14, 3,4-Dihydro-5-methyl-6-dimethylcarbamoyl-3-[2-(4-indan-4-ylpiperazin-1-yl)ethyl]thieno[2,3-d]pyrimidin-4-one]
19 | 287 °C | CCN1CCc2sc3ncn(CCN4CCN(c5cccc6c5CCCC6)CC4)c(=O)c3c2C1 (as salt: hydrochloride) [Example 12, 3,4,5,6,7,8-Hexahydro-6-ethyl-3-[2-(4-tetralin-5-yl-piperazin-1-yl)ethyl]pyrido[3′,4′:4,5]thieno[2,3-d]pyrimidin-4-one]
20 | 161 to 163 °C | CN1CCc2c(sc3ncn(CCCN4CCN(c5ncccn5)CC4)c(=O)c23)C1 [Example 64, 3,4,5,6,7,8-Hexahydro-7-methyl-3-[3-(4-pyrimidin-2-yl-piperazin-1-yl)propyl]pyrido[4′,3′:4,5]thieno[2,3-d]-pyrimidin-4-one]
21 | 143 to 145 °C | CN1CCc2c(sc3ncn(CCN4CCN(c5ccc6ccccc6n5)CC4)c(=O)c23)C1 [Example 65, 3,4,5,6,7,8-Hexahydro-7-methyl-3-[2-(4-quinolin-2-yl-piperazin-1-yl)ethyl]pyrido[4′,3′:4,5]thieno[2,3-d]-pyrimidin-4-one]
22 | 152 °C | CCOC(=O)N1Cc2sc3ncn(CCN4CCN(c5ccccc5C)CC4)c(=O)c3c2C1 [Example 38, 3,4,5,7-Tetrahydro-6-carboethoxy-3-[2-(4-(2-methylphenyl)-piperazin-1-yl)ethyl]pyrrolo[3′,4′:4,5]thieno-[2,3-d]pyrimidin-4-one]
23 | 190 to 191 °C | Cc1c(C(=O)N(C)C)sc2ncn(CCN3CCN(c4cccc5ccccc45)CC3)c(=O)c12 [Example 3, 3,4-Dihydro-5-methyl-6-dimethylcarbamoyl-3-[2-(4-(1-naphthyl)piperazin-1-yl)ethyl]thieno[2,3-d]pyrimidin-4-one]
24 | 101 to 102 °C | CN1CCc2c(sc3ncn(CCN4CCN(c5cc(C(F)(F)F)ccn5)CC4)c(=O)c23)C1 [Example 141, 3,4,5,6,7,8-Hexahydro-7-methyl-3-[2-(4-(4-trifluoromethylpyridin-2-yl)piperazin-1-yl)ethyl]pyrido[4′,3′:4,5]thieno-[2,3-d]pyrimidin-4-one]
25 | 112 to 114 °C | COc1ccccc1N1CCN(CCCn2cnc3sc4c(c3c2=N)CCN(C)C4)CC1 [Example 15, 3,4,5,6,7,8-Hexahydro-7-methyl-3-[3-(4-(2-methoxyphenyl)-piperazin-1-yl)propyl]pyrido[4′,3′:4,5]thieno[2,3-d]pyrimidin-4-imine]
26 | 70 to 71 °C | O=c1c2c3c(sc2ncn1CCN1CCN(c2ccccc2)CC1)CN(Cc1ccccc1)CC3 [Example 19, 3,4,5,6,7,8-Hexahydro-7-benzyl-3-[2-(4-phenylpiperazin-1-yl)-ethyl]pyrido[4′,3′:4,5]thieno[2,3-d]pyrimidin-4-one]
27 | 66 to 67 °C | COc1ccccc1N1CCN(CCCn2cnc3sc4c(c3c2=O)CCN(Cc2ccccc2)C4)CC1 [Example 18, 3,4,5,6,7,8-Hexahydro-7-benzyl-3-[3-(4-(2-methoxyphenyl)-piperazin-1-yl)propyl]pyrido[4′,3′:4,5]thieno[2,3-d]-pyrimidin-4-one]
28 | 295 to 300 °C | Cc1c(C(=O)N(C)C)sc2ncn(CCN3CCN(c4ncnc5ccccc45)CC3)c(=O)c12 (as salt: hydrochloride) [Example 29, 3,4-Dihydro-5-methyl-6-dimethylcarbamoyl-3-[2-(4-quinazolin-4-ylpiperazin-1-yl)ethyl]thieno[2,3-d]pyrimidin-4-one]
29 | 210 °C | Cc1c(C(=O)N(C)C)sc2ncn(CCN3CCN(c4ccccc4C#N)CC3)c(=O)c12 (as salt: hydrochloride) [Example 15, 3,4-Dihydro-5-methyl-6-dimethylcarbamoyl-3-[2-(4-(2-cyanophenyl)piperazin-1-yl)ethyl]thieno[2,3-d]pyrimidin-4-one]
30 | 168 to 170 °C | N=c1c2c3c(sc2ncn1CCN1CCN(c2ccccc2)CC1)CN(Cc1ccccc1)CC3 [Example 17, 3,4,5,6,7,8-Hexahydro-7-benzyl-3-[2-(4-phenylpiperazin-1-yl)-ethyl]pyrido[4′,3′:4,5]thieno[2,3-d]pyrimidin-4-imine]
31 | 149 °C | CCOC(=O)N1Cc2sc3ncn(CCN4CCN(c5cccc6c5CCC6)CC4)c(=O)c3c2C1 [Example 44, 3,4,5,7-Tetrahydro-6-carboethoxy-3-[2-(4-indan-4-ylpiperazin-1-yl)ethyl]pyrrolo[3′,4′:4,5]thieno[2,3-d]pyrimidin-4-one]
